Test results from ChEMBL document CHEMBL5360649, “Potential Broad-Spectrum Antimicrobial, Wound Healing, and Disinfectant Cationic Peptide Crafted from Snake Venom” (J Med Chem, 2023).
Active and inactive are the calls of the source. The calls are words filed in the database; no cut-off is given here.

How the values were obtained:
Lipopolysaccharide (LPS) = test: Displacement of BODIPY-TR-cadaverin from Escherichia coli O111:B4 Lipopolysaccharide assessed as increase in binding factor at 10 to 40 uM preincubated for 15 mins followed by BODIPY-TR-cadaverin addition and measured after 15 mins by fluorescence based analysis; details: dose 10-40 µM, time 30.0 min
[1] = Stability in human serum assessed as intact peptide remaining at 1 mM measured after 4 hrs by HPLC analysis; format: ADME, cell-free; details: read-out: Stability
[2] = Stability in human serum assessed as half-life at 1 mM by HPLC analysis; format: ADME, cell-free
Pseudomonas aeruginosa [3] = test: Antibacterial activity against patient-derived Pseudomonas aeruginosa assessed as inhibition of bacterial growth at 25 to 100 uM incubated overnight by spotting assay; format: functional, organism-based; details: dose 25-100 µM
Pseudomonas aeruginosa [4] = test: Bactericidal activity against patient-derived Pseudomonas aeruginosa assessed as reduction in bacterial growth incubated for 24 hrs by Mueller Hinton Agar based plate analysis; format: functional
Staphylococcus aureus [5] = test: Bactericidal activity against patient-derived Staphylococcus aureus assessed as reduction in bacterial growth incubated for 24 hrs by Mueller Hinton Agar based plate analysis; format: functional
[6] = Cytotoxicity against NMDF cells assessed as viable cells at 12.5 uM incubated for 24 hrs by MTT assay relative to control; format: toxicity, cell-based; details: mouse, read-out: Activity
U-937 = test: Immunomodulatory activity in human U-937 cells assessed as effect on TNF-alpha expression level at 5 to 10 uM incubated for 24 hrs by radioimmunoprecipitation based dot-plot analysis; format: functional, cell-based; details: dose 5-10 µM
Escherichia coli [7] = test: Antibacterial activity against Escherichia coli assessed as inhibition of bacterial growth incubated for 0.5 to 8.5 hrs by microtiter plate reader analysis; format: functional, organism-based; details: dose 1.25-40 µM, time 0.5-8.5 hrs
Klebsiella pneumoniae [8] = test: Antibacterial activity against carbapenem resistance Klebsiella pneumoniae ATCC BAA-1705 assessed as inhibition of bacterial growth incubated for 0.5 to 8.5 hrs by microtiter plate reader analysis; format: functional, organism-based; details: dose 1.25-40 µM, time 0.5-8.5 hrs
Staphylococcus aureus [9] = test: Antibacterial activity against methicillin resistant Staphylococcus aureus assessed as inhibition of bacterial growth at 1.25 to 40 uM incubated for 8 hrs by microtiter plate reader analysis; format: functional, organism-based; details: dose 1.25-40 µM
Klebsiella pneumoniae [10] = test: Induction of morphological changes in carbapenem resistant Klebsiella pneumoniae ATCC BAA-1705 at MIC concentration incubated for 6 hrs by AFM analysis; format: functional, organism-based
Pseudomonas aeruginosa [11] = test: Induction of morphological changes in Pseudomonas aeruginosa assessed as cellular destruction at MIC concentration incubated for 6 hrs by AFM analysis; format: functional, organism-based
Klebsiella pneumoniae [12] = test: Induction of morphological changes in carbapenem resistant Klebsiella pneumoniae ATCC BAA-1705 assessed as cellular destruction at MIC concentration incubated for 6 hrs by AFM analysis; format: functional, organism-based
Pseudomonas aeruginosa [13] = test: Induction of morphological changes in Pseudomonas aeruginosa at MIC concentration incubated for 6 hrs by SEM analysis; format: functional, organism-based
Klebsiella pneumoniae [14] = test: Induction of morphological changes in carbapenem resistant Klebsiella pneumoniae ATCC BAA-1705 at MIC concentration incubated for 6 hrs by SEM analysis; format: functional, organism-based
Escherichia coli [15] = test: Induction of morphological changes in Escherichia coli assessed as cellular destruction at MIC concentration incubated for 6 hrs by SEM analysis; format: functional, organism-based
Staphylococcus aureus [16] = test: Induction of morphological changes in methicillin-resistant Staphylococcus aureus assessed as cellular destruction at MIC concentration incubated for 6 hrs by SEM analysis; format: functional, organism-based
Klebsiella pneumoniae [17] = test: Induction of morphological changes in carbapenem resistant Klebsiella pneumoniae ATCC BAA-1705 assessed as cellular destruction at MIC concentration incubated for 6 hrs by SEM analysis; format: functional, organism-based
Staphylococcus aureus [18] = test: Induction of morphological changes in methicillin resistant Staphylococcus aureus assessed as decrease in legible cells at MIC concentration incubated for 6 hrs by AFM analysis; format: functional, organism-based
Klebsiella pneumoniae [19] = test: Induction of morphological changes in carbapenem resistant Klebsiella pneumoniae ATCC BAA-1705 at MIC concentration incubated for 60 mins by SEM analysis; format: functional, organism-based
Klebsiella pneumoniae [20] = test: Induction of morphological changes in carbapenem resistant Klebsiella pneumoniae ATCC BAA-1705 assessed as cellular defacement at MIC concentration incubated for 60 mins by SEM analysis; format: functional, organism-based
Cell membrane [21] = test: Induction of cytoplasmic membrane depolarization in Escherichia coli assessed as increase in fluorescence intensity at 0.5 to 1 times of MIC by DiSC3-5 dye based fluorescence method; format: subcellular
Cell membrane [22] = test: Induction of inner membrane permeabilization in Pseudomonas aeruginosa assessed as increase in fluorescence at 0.5 to 1 times of MIC incubated for 60 mins by PI staining based fluorescence analysis; format: subcellular
Pseudomonas aeruginosa [23] = test: Antibacterial activity against Pseudomonas aeruginosa assessed as cell division block by measuring bacterial filamentation at 0.5 to 1 times of MIC incubated for 30 mins by SYTO9/PI staining based fluorescence microscopic analysis; format: functional, organism-based
Klebsiella pneumoniae [24] = test: Antibacterial activity against Klebsiella pneumoniae assessed as cell division block by measuring cellular elongation at 0.5 to 1 times of MIC incubated for 30 mins by SYTO9/PI staining based fluorescence microscopic analysis; format: functional, organism-based
Klebsiella pneumoniae [25] = test: Antibiofilm activity against Klebsiella pneumoniae assessed as clearance of preformed biofilm at 0.5 times of MIC incubated for 24 hrs by CV staining based analysis relative to control; format: functional
Escherichia coli [26] = test: Antibiofilm activity against Escherichia coli in the presence of Cl-; format: functional, organism-based
Staphylococcus aureus [27] = test: Antibiofilm activity against methicillin-resistant Staphylococcus aureus in the presence of Cl-; format: functional, organism-based
Klebsiella pneumoniae [28] = test: Antibiofilm activity against Klebsiella pneumoniae in the presence of Cl-; format: functional, organism-based
Staphylococcus aureus [29] = test: Antibiofilm activity in methicillin-resistant Staphylococcus aureus assessed as biofilm clearance incubated for 24 hrs by Congo red dye based fluorescence analysis; format: functional, organism-based
Klebsiella pneumoniae [30] = test: Antibiofilm activity against Klebsiella pneumoniae assessed as biofilm clearance incubated for 24 hrs by Congo red dye based fluorescence analysis; format: functional, organism-based
Staphylococcus aureus [31] = test: Antibiofilm activity against methicillin-resistant Staphylococcus aureus assessed as increase in dead cell proportion at 0.5 times of MIC incubated overnight by SYTO9/PI staining based fluorescence analysis; format: functional, organism-based
Klebsiella pneumoniae [32] = test: Antibiofilm activity against preformed biofilm in Klebsiella pneumoniae assessed as decrease in metabolic activity at MIC incubated overnight by MTT assay; format: functional, organism-based
NMDF = test: Induction of cell migration in NMDF cells at 10 uM incubated for 24 hrs by wound healing scratch/mirgation assay; format: functional, cell-based; details: Mus musculus
Rattus norvegicus [33] = species: Rattus norvegicus; test: Induction of wound healing in surgically-induced Albino Wistar rat wound model assessed as dense epithelial-tissue layers at 10 uM measured after 11 days by H&E staining based analysis; format: functional; details: time 11.0 day
Rattus norvegicus [34] = species: Rattus norvegicus; test: Induction of wound healing in surgically-induced Albino Wistar rat wound model assessed as proper formation of sebaceous gland at 10 uM measured after 11 days by H&E staining based analysis; format: functional; details: time 11.0 day
Rattus norvegicus [35] = species: Rattus norvegicus; test: Induction of wound healing in surgically-induced Albino Wistar rat wound model assessed as densely packed epithelium containing keratinocytes at 10 uM measured after 11 days by H&E staining based analysis; format: functional; details: time 11.0 day
Rattus norvegicus [36] = species: Rattus norvegicus; test: Induction of wound healing in surgically-induced Albino Wistar rat wound model assessed as reduction in inflammatory activity at 10 uM measured after 11 days by H&E staining based analysis; format: functional; details: time 11.0 day
Rattus norvegicus [37] = species: Rattus norvegicus; test: Induction of wound healing in surgically-induced Albino Wistar rat wound model inoculated with methicillin-resistant Staphylococcus aureus assessed as reduction in inflammatory signs at 10 uM measured after 11 days by H&E staining based analysis; format: functional; details: time 11.0 day

## H-FLPIIKWVKKFFWRWR-OH
Lipopolysaccharide (LPS)
  Activity: Active
[1]
  remaining at 4 h, 1000 µM: 82.6%
[2]
  half-life at 1000 µM: ~24 h
Pseudomonas aeruginosa [3]
  Activity: Active
Pseudomonas aeruginosa [4]
  MBC: 6 µM
Staphylococcus aureus [5]
  MBC: 8 µM
[6]
  viability at 24 h, 12.5 µM: > 85%
U-937
  Activity: Active
Escherichia coli [7]
  Activity: Dose-Dependent Effect
Klebsiella pneumoniae [8]
  Activity: Dose-Dependent Effect
Staphylococcus aureus [9]
  Activity: Active
Klebsiella pneumoniae [10]
  Activity: Active
Pseudomonas aeruginosa [11]
  Activity: Active
Klebsiella pneumoniae [12]
  Activity: Active
Pseudomonas aeruginosa [13]
  Activity: Active
Klebsiella pneumoniae [14]
  Activity: Active
Escherichia coli [15]
  Activity: Active
Staphylococcus aureus [16]
  Activity: Active
Klebsiella pneumoniae [17]
  Activity: Active
Staphylococcus aureus [18]
  Activity: Active
Klebsiella pneumoniae [19]
  Activity: Active
Klebsiella pneumoniae [20]
  Activity: Active
Cell membrane [21]
  Activity: Active
Cell membrane [22]
  Activity: Active
Pseudomonas aeruginosa [23]
  Activity: Active
Klebsiella pneumoniae [24]
  Activity: Active
Klebsiella pneumoniae [25]
  Activity: ~52%
Escherichia coli [26]
  Activity: Active
Staphylococcus aureus [27]
  Activity: Active
Klebsiella pneumoniae [28]
  Activity: Active
Staphylococcus aureus [29]
  Activity: Dose-Dependent Effect
Klebsiella pneumoniae [30]
  Activity: Dose-Dependent Effect
Staphylococcus aureus [31]
  Activity: inactive
Klebsiella pneumoniae [32]
  Activity: Active
NMDF
  Activity: Active
Rattus norvegicus [33]
  Activity: Active
Rattus norvegicus [34]
  Activity: Active
Rattus norvegicus [35]
  Activity: Active
Rattus norvegicus [36]
  Activity: Active
Rattus norvegicus [37]
  Activity: Active
